Laboratory results reported in US9487506B2, “Mineralocorticoid receptor antagonists” (Merck Sharp & Dohme Corp., priority 2011, dated 2016).

target: T1, full-length human Mineralocorticoid Receptor (MR) (Homo sapiens, UniProt P08235); assay: human MR NH Pro assay (PathHunter Protein:Protein interaction assay), MR antagonist activity; format: cell-based; details: PathHunter CHO-K1 cells overexpressing human MR; aldosterone 0.3 nM to about 1 nM; 6 hours at 37° C.; luminescence; read-out: IP (rating); IP is the inflection point for a given dose-response titration curve
T1 construct: host or cells: PathHunter CHO-K1 cells
T1 sequence (P08235 1-984): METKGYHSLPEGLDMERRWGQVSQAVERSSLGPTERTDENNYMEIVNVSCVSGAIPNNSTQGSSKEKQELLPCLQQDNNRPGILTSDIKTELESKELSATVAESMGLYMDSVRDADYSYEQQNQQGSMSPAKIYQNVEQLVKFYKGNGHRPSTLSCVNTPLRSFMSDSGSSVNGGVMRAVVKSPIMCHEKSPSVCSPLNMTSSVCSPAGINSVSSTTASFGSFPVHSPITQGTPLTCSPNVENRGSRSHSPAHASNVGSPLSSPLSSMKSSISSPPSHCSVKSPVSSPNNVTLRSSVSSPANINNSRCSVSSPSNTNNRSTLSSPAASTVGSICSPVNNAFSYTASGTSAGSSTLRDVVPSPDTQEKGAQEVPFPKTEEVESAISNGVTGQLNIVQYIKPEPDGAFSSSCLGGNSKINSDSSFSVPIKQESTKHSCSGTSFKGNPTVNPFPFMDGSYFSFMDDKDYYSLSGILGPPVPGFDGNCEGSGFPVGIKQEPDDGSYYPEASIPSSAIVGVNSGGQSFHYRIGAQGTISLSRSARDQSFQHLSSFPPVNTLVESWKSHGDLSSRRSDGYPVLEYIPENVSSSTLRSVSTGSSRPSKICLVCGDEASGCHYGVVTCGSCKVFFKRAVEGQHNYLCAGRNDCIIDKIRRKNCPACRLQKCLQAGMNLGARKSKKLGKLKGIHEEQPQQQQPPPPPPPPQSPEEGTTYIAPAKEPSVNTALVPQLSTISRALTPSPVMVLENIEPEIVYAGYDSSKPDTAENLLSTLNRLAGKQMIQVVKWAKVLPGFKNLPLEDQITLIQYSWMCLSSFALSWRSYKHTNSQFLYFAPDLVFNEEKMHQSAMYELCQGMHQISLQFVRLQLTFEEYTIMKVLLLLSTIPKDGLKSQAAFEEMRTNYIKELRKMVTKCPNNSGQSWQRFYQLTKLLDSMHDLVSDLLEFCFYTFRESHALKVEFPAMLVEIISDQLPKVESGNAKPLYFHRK
Description: The activity of the compounds of the present invention regarding mineralocorticoid receptor antagonism can be evaluated using the following assay.
Assessment of MR Potency in HMR NH Pro Assay
The human MR NH Pro assay is a commercially available PathHunter™ Protein:Protein interaction assay (DiscoveRx; http://www.discoverx.com/nhrs/prod-nhrs.php) that measures the ability of compounds to antagonize full-length human Mineralocorticoid Receptor (MR) binding to a coactivator peptide. PathHunter™ CHO-K1 cells that overexpress human MR (Cat #93-0456C2, Lot No: 09B0913) were cultured in growth media (F12K w/Glutamine and phenol red (Gibco 11765-047) supplemented with 10% HI FBS (Gibco 16000); 0.25 mg/ml Hygromycin in PBS (Invitrogen 10687-010, 50 mg/ml); 100 I.U./mL and 100 μg/mL Pen/Strep (Gibco 15140-122); 0.6 mg/mL Geneticin (Gibco 10131-027).
Compounds were assessed for MR antagonist activity by incubating the cells with a titrating dose of compound in F12K w/Glutamine and phenol red culture media (Invitrogen 11765-047) supplemented with 1% Charcoal/Dextran Treated FBS (Hyclone #SH30068.01) and aldosterone (0.3 nM to about 1 nM) for 6 hours at 37° C. Cells were then treated with DiscoveRx detection reagent for 1 hour at room temperature and read using an Envision luminescence plate reader. % activity was measured relative to cells treated with aldosterone alone and IC50 values were calculated using ADA software.
Stock solution was prepared at 10 μM in DMSO and stored at −20° C. for assay, dilute in assay media to 1.8 or 6 nM (6× of final concentration=about 0.3 nM to about 1.0 nM)
5. Cell line: PathHunter CHO-K1 MR cells Cat #93-0456C2, Lot No: 09B0913, from operation liquid nitrogen stock.
3. The cells concentration was adjusted to 4×10^5 cells/mL.
4. Cells were (25 μL/well) added to the wells of a 384 well plate.
5. The plate was then incubated at 37° C. over night in a humidified incubator with 5% CO2.
6. Test compounds were titrated starting at 4.4 mM, 10-point titration in 1:3 dilution.
7. Aldosterone was diluted in assay media to 1.8 nM or 6 nM from 10 μM stock (final concentration to be about 0.3 nM to about 1.0 nM)
1. 10K exponentially growing cells/well (25 μL) were resuspended in assay media and plated into each well using the Multidrop (Thermo Electron) (use white wall, clear bottom assay plates (Costar #3570) and incubated overnight at 37° C., 5% CO2.
2. 0.25 μL 120× test compound (final DMSO concentration should be <1%) was added to each well n=2, 10 point titrations starting at 36.7 μM final concentration.
3. 5 μL of 6× agonist (final aldosterone concentration should be about 0.3 nM to about 1.0 nM) was added to all wells (using the PlateMate Plus; (ThermoFisher) (except those wells in columns 23 and 24)
4. 5 μL of assay media was added to all wells in column 23 and 24.
5. Cells were then incubated for 6 hrs at 37° C., 5% CO2.
6. 15 μL 3× DiscoveRx detection reagent was then added to each well.
7. Plates were incubated for 1 hour at room temperature in the dark.
8. Plates were read on Envision (PerkinElmer) luminesence plate reader and analyzed using ADA.

IC50 | Compound
500 to 6000 nM | N#CCCC(c1ccc(Cl)cc1F)c1nn(CC#N)c2ccccc12 (stereo not drawn) [Example 17E, 4-(4-chloro-2-fluorophenyl)-4-[1-(cyano-methyl)-1H-indazol-3-yl]-butanenitrile]
500 to 6000 nM | CSCn1nc(C(CCC#N)c2ccc(Cl)cc2F)c2ccccc21 (stereo not drawn) [Example 17D, 4-(4-chloro-2-fluorophenyl)-4-{1-[(methyl-sulfanyl)-methyl]-1H-indazol-3-yl}-butanenitrile]
500 to 6000 nM | COC(=O)Cn1nc(Cc2ccc(Cl)cc2)c2ccccc21 [Example 20, Methyl [3-(4-chlorobenzyl)-1H-indazol-1yl]acetate]
500 to 6000 nM | CC(C)(C)OC(=O)Cn1nc(C(C)(C)c2ccc(Cl)cc2)c2ccccc21 [Example 18, tert-butyl {3-[1-(4-chlorophenyl)-1-methylethyl]-1H-indazol-1-yl}acetate]
< 100 nM | CCC(c1ccc(Cl)cc1)(c1n[nH]c2c(NS(C)(=O)=O)cccc12)C(C)O (single isomer, unassigned; diastereoisomer b) [Compound 24B]

same assay, conditions: enantiomers from chiral SFC OJ-H separation of the racemate

relative MR antagonist activity of the separated enantiomers | Compound
less active | CS(=O)(=O)Nc1cccc2c(C(CCC#N)c3ccc(Cl)cc3F)n[nH]c12 (single isomer, unassigned) [second peak, N-{3-[1-(4-Chloro-2-fluorophenyl)-3-cyanopropyl]-1H-indazol-7-yl}methanesulfonamide]
